Measured values published in the supplement of paper PMC12532568.

Test system: Danio rerio larvae Tg(actc1b:ZsGreen-LC3), 3 dpf
Experiment: LC3 puncta relative area vs vehicle (mean) (log2 fold change); higher = more autophagy
Conditions: treatment time 16 h
Experimental: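 Transgenic ZsGreen-LC3 zebrafish larvae (2 dpf) were treated for 16 h with natural bioactives at 10, 50, 100 or 250 µM. Skeletal-muscle LC3 puncta area was measured by high-content imaging with or without 4 h of 100 mM NH4Cl, normalised to vehicle, and reported as the mean log2 fold change over 4–21 larvae.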

Compound | LC3 puncta (log2) (NH4Cl: + NH4Cl, 10 µM) | LC3 puncta (log2) (NH4Cl: + NH4Cl, 50 µM) | LC3 puncta (log2) (NH4Cl: + NH4Cl, 100 µM) | LC3 puncta (log2) (NH4Cl: + NH4Cl, 250 µM) | LC3 puncta (log2) (NH4Cl: - NH4Cl, 10 µM) | LC3 puncta (log2) (NH4Cl: - NH4Cl, 50 µM) | LC3 puncta (log2) (NH4Cl: - NH4Cl, 100 µM) | LC3 puncta (log2) (NH4Cl: - NH4Cl, 250 µM)
Oc1cc(O)c2c(c1)O[C@H](c1ccc(O)c(O)c1)[C@H](O)C2 [(-)-Epicatechin] | 0.954 | 0.317 | 0.232 | 0.0319 | -0.000662 | -0.156 | -0.539 | -0.492
NC(=O)c1ccc[n+]([C@@H]2O[C@H](CO)[C@@H](O)[C@H]2O)c1 [Nicotinamide riboside chloride] | 0.917 | 0.613 | 0.663 | 0.76 | 0.148 | -0.293 | 0.0672 | 0.257
O=C(O)CCSCCC(=O)O [3,3'-thiodipropionic acid] | 0.309 | 0.728 | -0.445 | 0.629 | 0.0135 | 0.045 | -0.0204 | -0.062
N[C@@H](CCC(=O)O)C(=O)O [L-glutamic acid] | 0.755 | 0.239 | 0.876 | 0.997 | 0.144 | 0.165 | 0.702 | 0.322
OCC(O)CO [Glycerol] | 0.468 | -0.233 | 0.425 | 0.628 | 0.0358 | -0.0173 | 0.118 | 0.027
C[C@@H](O)CC(=O)O [(R)-3-Hydroxybutyric acid] | 0.877 | 0.689 | 0.929 | 1.01 | 0.111 | -0.78 | 0.265 | 0.324
C/C=C\C=C\C(=O)O [(2E,4Z)-2,4-hexadienoic acid] | 0.772 | 1.14 | 1.21 | 0.824 | 0.44 | -0.191 | 1.17 | -0.266
CC(O)CC(=O)O (configuration not stated) [Sodium 3-hydroxybutyrate] | 0.123 | 0.569 | 0.8 | 0.884 | 0.0599 | 0.278 | 0.0997 | 0.295
Cc1ccc(C(C)C)c(O)c1 [Thymol] | 0.947 | 1.4 | 1.68 | 1.55 | 0.0897 | 0.575 | 0.869 | 1.65
CCC(O)CC(=O)O (configuration not stated) [b-Hydroxyvalerate] | 0.933 | 0.6 | 1.08 | 1.21 | 0.353 | 0.272 | 0.404 | 0.37
CCCCCCCCCC(=O)[O-].[Na+] [Sodium decanoate] | 0.524 | -0.00931 | -1.55 | -0.382 | 0.285 | -0.0288 | -0.846 | 0.298
O=C(O)c1cccnc1 [Nicotinic acid] | 0.718 | 0.758 | 0.79 | 0.941 | 0.0747 | 0.284 | 0.456 | 0.418
O=C(O)C[C@H](O)C(=O)O [(2S)-2-hydroxybutanedioic acid] | 0.631 | 0.508 | 0.375 |  | -0.158 | 0.038 | 0.417 | 0.262
C[C@@H]1O[C@@H](OC[C@H]2O[C@@H](Oc3c(-c4ccc(O)c(O)c4)oc4cc(O)cc(O)c4c3=O)[C@H](O)[C@@H](O)[C@@H]2O)[C@H](O)[C@H](O)[C@H]1O [Rutin hydrate] | 0.351 | 0.0277 | 0.401 | 0.491 | -0.169 | -0.116 | 0.291 | 0.18
CCCC(=O)[O-].[Na+] [Butyric acid sodium salt] | 0.256 | 0.65 | 0.615 | 0.513 | 0.036 | 0.362 | 0.26 | -0.0615
O=C(O[C@@H]1Cc2c(O)cc(O)cc2O[C@@H]1c1ccc(O)c(O)c1)c1cc(O)c(O)c(O)c1 [(-)-Epicatechin gallate] | 0.221 | 0.493 | 0.661 |  | -0.0294 | 0.253 | 0.0524 | 
O=C(O)CC(O)(CC(=O)O)C(=O)O [Citric acid] | 0.486 | 0.837 | -0.0949 | -0.815 | -0.0291 | -0.364 | 0.353 | 0.401
Cc1ccc(C(C)C)cc1O [Carvacrol] | 0.565 | 1.07 | 1.84 | 1.67 | 0.493 | 0.93 | 1.08 | 1.92
CC(=O)CC(=O)O [Lithium acetoacetate] | 0.433 | 0.388 | 0.24 | 0.594 | 0.304 | -0.266 | -0.279 | 0.0398
C[C@@H](CO)C(=O)O [Sodium β-hydroxyisobutyrate] | 0.761 | 0.505 | 0.553 | 0.277 | 0.14 | -0.573 | -0.233 | -0.327
CC(O)C(=O)O (configuration not stated) [Lactic acid] | 0.558 | 0.374 | 0.472 | 0.345 | 0.287 | -0.151 | -0.219 | 0.079
O=C(O)C=CC(=O)O [Butenedioic acid] | 0.693 | 1.1 | 1.29 | 1.14 | 0.588 | 0.758 | 0.837 | 0.447
C[C@H](O)CCO [(S)-1,3-Butylene Glycol] | 0.505 | -0.0626 | 0.509 |  | -0.143 | -0.512 | -0.016 | 0.014
C[n+]1cccc(C(=O)[O-])c1 [Trigonelline] | 0.266 | 0.266 | 0.112 |  | 0.202 | 0.619 | 0.435 | -0.0876
